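Here, GI50 denotes the concentration required for 50% inhibition of growth. TGI: concentration producing complete growth inhibition.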
How the values were obtained:
Test in all cases: NCI anticancer screen, dose series, 384-well format
786-0 renal = system: 786-0 renal
A498 renal = system: A498 renal
A549 NSCLC = system: A549 NSCLC
ACHN renal = system: ACHN renal
BT-549 breast = system: BT-549 breast
CAKI-1 renal = system: CAKI-1 renal
CCRF-CEM leukemia = system: CCRF-CEM leukemia
COLO 205 colon = system: COLO 205 colon
DU-145 prostate = system: DU-145 prostate
EKVX NSCLC = system: EKVX NSCLC
HCC-2998 colon = system: HCC-2998 colon
HCT-15 colon = system: HCT-15 colon
HL-60(TB) leukemia = system: HL-60(TB) leukemia
HOP-62 NSCLC = system: HOP-62 NSCLC
HOP-92 NSCLC = system: HOP-92 NSCLC
HS 578T breast = system: HS 578T breast
HT29 colon = system: HT29 colon
IGROV1 ovarian = system: IGROV1 ovarian
K-562 leukemia = system: K-562 leukemia
KM12 colon = system: KM12 colon
LOX IMVI melanoma = system: LOX IMVI melanoma
M14 melanoma = system: M14 melanoma
MALME-3M melanoma = system: MALME-3M melanoma
MCF7 breast = system: MCF7 breast
MDA-MB-231 breast = system: MDA-MB-231 breast
MDA-MB-435 melanoma = system: MDA-MB-435 melanoma
MDA-MB-468 breast = system: MDA-MB-468 breast
MOLT-4 leukemia = system: MOLT-4 leukemia
NCI-H226 lung = system: NCI-H226 lung
NCI-H23 lung = system: NCI-H23 lung
NCI-H322M lung = system: NCI-H322M lung
NCI-H460 NSCLC = system: NCI-H460 NSCLC
NCI-H522 lung = system: NCI-H522 lung
NCI/ADR-RES ovarian = system: NCI/ADR-RES ovarian
OVCAR-3 ovarian = system: OVCAR-3 ovarian
OVCAR-4 ovarian = system: OVCAR-4 ovarian
OVCAR-5 ovarian = system: OVCAR-5 ovarian
OVCAR-8 ovarian = system: OVCAR-8 ovarian
PC-3 prostate = system: PC-3 prostate
RPMI-8226 leukemia = system: RPMI-8226 leukemia
RXF 393 renal = system: RXF 393 renal
SF-268 CNS = system: SF-268 CNS
SF-295 CNS = system: SF-295 CNS
SF-539 CNS = system: SF-539 CNS
SK-MEL-28 melanoma = system: SK-MEL-28 melanoma
SK-MEL-5 melanoma = system: SK-MEL-5 melanoma
SK-OV-3 ovarian = system: SK-OV-3 ovarian
SN12C renal = system: SN12C renal
SNB-19 CNS = system: SNB-19 CNS
SNB-75 CNS = system: SNB-75 CNS
SR leukemia = system: SR leukemia
SW-620 colon = system: SW-620 colon
T-47D breast = system: T-47D breast
TK-10 renal = system: TK-10 renal
UACC-257 melanoma = system: UACC-257 melanoma
UACC-62 melanoma = system: UACC-62 melanoma
UO-31 renal = system: UO-31 renal

For `CC(=O)Nc1nc(C)c(-c2cc3c(c(S(C)(=O)=O)c2)C(=O)N([C@@H](C)C2CC2)C3)s1`, the GI50 ([…]-0 renal) was 34.7 µM, the TGI (786-0 renal) was > 100 µM and the GI50 (A498 renal) was 19.3 µM. For the same molecule, the TGI (A498 renal) was 80.4 µM, the GI50 (A549 NSCLC) was 33.6 µM and the TGI (A549 NSCLC) was > 100 µM. For the same molecule, the GI50 (ACHN renal) was 31 µM, the TGI (ACHN renal) was > 100 µM and the GI50 (BT-549 breast) was 36.9 µM. For the same molecule, the TGI (BT-549 breast) was > 100 µM, the GI50 (CAKI-1 renal) was 25.5 µM and the TGI (CAKI-1 renal) was 77.6 µM. For the same molecule, the GI50 (CCRF-CEM leukemia) was 0.0269 µM, the TGI (CCRF-CEM leukemia) was 11.7 µM and the GI50 (COLO 205 colon) was 38.8 µM. For the same molecule, the TGI (COLO 205 colon) was > 100 µM, the GI50 (DU-145 prostate) was 34.9 µM and the TGI (DU-145 prostate) was > 100 µM. The GI50 (EKVX NSCLC) was 42.1 µM, the TGI (EKVX NSCLC) was > 100 µM and the GI50 (HCC-2998 colon) was 51.3 µM. The TGI (HCC-2998 colon) was > 100 µM, the GI50 (HCT-15 colon) was 28.6 µM and the TGI (HCT-15 colon) was 93.4 µM. The GI50 (HL-60(TB) leukemia) was 13 µM, the TGI (HL-60(TB) leukemia) was 33.3 µM and the GI50 (HOP-62 NSCLC) was 30.4 µM. The TGI (HOP-62 NSCLC) was > 100 µM, the GI50 (HOP-92 NSCLC) was 32.1 µM and the TGI (HOP-92 NSCLC) was > 100 µM. For the same molecule, the GI50 (HS 578T breast) was 17.5 µM, the TGI (HS 578T breast) was 51.4 µM and the GI50 (HT29 colon) was 29.8 µM. For the same molecule, the TGI (HT29 colon) was > 100 µM, the GI50 (IGROV1 ovarian) was 22.6 µM and the TGI (IGROV1 ovarian) was 54.8 µM. For the same molecule, the GI50 (K-562 leukemia) was 29.1 µM, the TGI (K-562 leukemia) was > 100 µM and the GI50 (KM12 colon) was 42.6 µM. The TGI (KM12 colon) was > 100 µM, the GI50 (LOX IMVI melanoma) was 28.2 µM and the TGI (LOX IMVI melanoma) was 86.3 µM. The GI50 (M14 melanoma) was 31.7 µM, the TGI (M14 melanoma) was > 100 µM and the GI50 (MALME-3M melanoma) was 14.9 µM. The TGI (MALME-3M melanoma) was 57.1 µM, the GI50 (MCF7 breast) was 24.6 µM and the TGI (MCF7 breast) was > 100 µM. The GI50 (MDA-MB-231 breast) was 22.3 µM, the TGI (MDA-MB-231 breast) was > 100 µM and the GI50 (MDA-MB-435 melanoma) was 54.4 µM. For the same molecule, the TGI (MDA-MB-435 melanoma) was > 100 µM, the GI50 (MDA-MB-468 breast) was 15.5 µM and the TGI (MDA-MB-468 breast) was 45 µM. It also gave a GI50 (MOLT-4 leukemia) of 17.5 µM, a TGI (MOLT-4 leukemia) of 33.1 µM and a GI50 (NCI-H226 lung) of 35.7 µM. The TGI (NCI-H226 lung) was > 100 µM, the GI50 (NCI-H23 lung) was 28.7 µM and the TGI (NCI-H23 lung) was > 100 µM. For the same molecule, the GI50 (NCI-H322M lung) was 30.3 µM, the TGI (NCI-H322M lung) was > 100 µM and the GI50 (NCI-H460 NSCLC) was 30 µM. The TGI (NCI-H460 NSCLC) was > 100 µM, the GI50 (NCI-H522 lung) was 25.7 µM and the TGI (NCI-H522 lung) was 78.2 µM. For the same molecule, the GI50 (NCI/ADR-RES ovarian) was 77.4 µM, the TGI (NCI/ADR-RES ovarian) was > 100 µM and the GI50 (OVCAR-3 ovarian) was 26.5 µM. The TGI (OVCAR-3 ovarian) was > 100 µM, the GI50 (OVCAR-4 ovarian) was 20.8 µM and the TGI (OVCAR-4 ovarian) was 77 µM. For the same molecule, the GI50 (OVCAR-5 ovarian) was 31.7 µM, the TGI (OVCAR-5 ovarian) was > 100 µM and the GI50 (OVCAR-8 ovarian) was 48 µM. The TGI (OVCAR-8 ovarian) was > 100 µM, the GI50 (PC-3 prostate) was 39.6 µM and the TGI (PC-3 prostate) was > 100 µM. The GI50 (RPMI-8226 leukemia) was 19.9 µM, the TGI (RPMI-8226 leukemia) was 40.8 µM and the GI50 (RXF 393 renal) was 30.9 µM. For the same molecule, the TGI (RXF 393 renal) was > 100 µM, the GI50 (SF-268 CNS) was 34.7 µM and the TGI (SF-268 CNS) was > 100 µM. For the same molecule, the GI50 (SF-295 CNS) was 27.9 µM, the TGI (SF-295 CNS) was > 100 µM and the GI50 (SF-539 CNS) was 31.5 µM. The TGI (SF-539 CNS) was > 100 µM, the GI50 (SK-MEL-28 melanoma) was 22.8 µM and the TGI (SK-MEL-28 melanoma) was > 100 µM. The GI50 (SK-MEL-5 melanoma) was 15 µM, the TGI (SK-MEL-5 melanoma) was 41.4 µM and the GI50 (SK-OV-3 ovarian) was 19.3 µM. For the same molecule, the TGI (SK-OV-3 ovarian) was 48.5 µM, the GI50 (SN12C renal) was 25.1 µM and the TGI (SN12C renal) was 91.3 µM. The GI50 (SNB-19 CNS) was 82.2 µM, the TGI (SNB-19 CNS) was > 100 µM and the GI50 (SNB-75 CNS) was 28.6 µM. The TGI (SNB-75 CNS) was > 100 µM, the GI50 (SR leukemia) was 17.3 µM and the TGI (SR leukemia) was 43.8 µM. The GI50 (SW-620 colon) was > 100 µM, the TGI (SW-620 colon) was > 100 µM and the GI50 (T-47D breast) was 6.04 µM. For the same molecule, the TGI (T-47D breast) was 37.3 µM, the GI50 (TK-10 renal) was 31.8 µM and the TGI (TK-10 renal) was > 100 µM. For the same molecule, the GI50 (UACC-257 melanoma) was 27.2 µM, the TGI (UACC-257 melanoma) was > 100 µM and the GI50 (UACC-62 melanoma) was 29.1 µM. The TGI (UACC-62 melanoma) was > 100 µM, the GI50 (UO-31 renal) was 31.6 µM and the TGI (UO-31 renal) was > 100 µM.

Reference: PubChem BioAssay (NCI)
